# Tested on: Rattus norvegicus
# Settings: oral
# [1] = subchronic, gavage, M, Sprague-Dawley, Clinical Observation: Salivation + Hematology: NEUT increase + Histopathology: Forestomach-Erosion Forestomach-Cellular infiltration, …
# [2] = subchronic, gavage, M, Sprague-Dawley, Urinalysis: Round epithelial cell increase + Hematology: RBC decrease, HGB decrease, HCT decrease, RET increase, R + Blood Chemistry: a2-…
smiles,measurement,setting,value
COc1cc(-c2ccc(N=Nc3c(S(=O)(=O)[O-])cc4cc(S(=O)(=O)[O-])cc(N)c4c3O)c(OC)c2)ccc1N=Nc1c(S(=O)(=O)[O-])cc2cc(S(=O)(=O)[O-])cc(N)c2c1O.[Na+].[Na+].[Na+].[Na+] [C.I. Direct Blue 15],NOEL,"subchronic, duration: 13 weeks, drinking water, F, Fischer 344, Deaths + Body Weight Changes: decrease + Water Consumption: decrease + Absolute Organ Weight: Kidney increase + Relative Organ Weight: …",380 mg/kg-day
same,NOEL,"subchronic, duration: 13 weeks, drinking water, M, Fischer 344, Deaths + Body Weight Changes: decrease + Water Consumption: decrease + Absolute Organ Weight: Kidney increase + Relative Organ Weight: …",< 190 mg/kg-day
"Cc1cc(C)c(C)c(O)c1 [2,3,5-Trimethylphenol]",NOEL,"subchronic, gavage, M, Sprague-Dawley, Clinical Observation: Soiled perigenitalia of urine LethargyAtaxia gait(transient after administration) + Body Weight Changes: decrease(…",100 mg/kg-day
Nc1cc(OCCOc2ccccc2)n[nH]1 [3-(2-Phenoxyethoxy)-1H-pyrazol-5-amine],NOEL,"short-term, duration: 28 days, gavage, M/F, Deaths + Clinical Observation: Salivation Locomotor activity decrease, Sedation Urinary incontinence + Body Weight Changes: Body weight …",40 mg/kg-day
COC(=O)C1=C(C)NC(C)=C(C(=O)OCC(C)=O)C1c1ccccc1[N+](=O)[O-] (configuration not stated) [Aranidipine],NOEL,"chronic, duration: 91 days, gavage, M/F, Wistar, Deaths + Clinical Observation: Prone position.0 (Dead animal) Hypothermia.0 (Dead animal) Rough respiration Locomotor activity decrease …",3 mg/kg-day
CCn1cc(C(=O)O)c(=O)c2ccc(C)nc21 [Nalidixic acid],NOEL,"subchronic, duration: 13 weeks, diet, M/F, Fischer 344, Deaths + Body Weight Changes: decrease + Food Consumption: decrease + Absolute Organ Weight: Liver increase + Relative Organ Weight: Liver …",96 mg/kg-day
"C[C@H](CCc1ccccc1)NC[C@H](O)c1ccc(O)c(C(N)=O)c1.Cl [(R,R)-Dilevalol hydrochloride]",NOEL,"subchronic, duration: 90 days, gavage, M/F, Sprague-Dawley, Clinical Observation: Salivation + Body Weight Changes: body weight gain decrease + Urinalysis: Volume increase, Specific gravity decrease…",60 mg/kg-day
CC=CC(=O)N(CC)c1ccccc1C [Crotamiton],NOEL,"short-term, duration: 28 days, gavage, F, Sprague-Dawley, Clinical Observation: Salivation + Body Weight Changes: Weight gain decrease, increase + Food Consumption: increase + Urinalysis: Occult …",60 mg/kg-day
same,NOEL,"short-term, duration: 28 days, gavage, M, Sprague-Dawley, Clinical Observation: Salivation + Body Weight Changes: Weight gain decrease, increase + Food Consumption: increase + Urinalysis: Occult …",12 mg/kg-day
"C[Si](O[Si](C)(C)C)O[Si](C)(C)C [1,1,1,3,5,5,5-Heptamethyltrisiloxane]",NOAEL,"subchronic, duration: 35 days, gavage, M, Wistar, Clinical Observation: Salivation / No description about sex and dosages Pushing the head through the bedding material / No description …",50 mg/kg-day
O=C(O)c1cccnc1Cl [3-Carboxy-2-chloropyridine],NOEL,"short-term, duration: 28 days, gavage, M/F, Clinical Observation: Alopecia Salivation + Blood Chemistry: GOT increase, GPT increase, ALP increase, BUN increase + Necropsy: Liver - …",10 mg/kg-day
"Nc1ccc(Cc2ccc(N)c(Cl)c2Cl)c(Cl)c1Cl [Benzenamine, 4,4'-methylenebis(2,3-dichloro-]",NOEL,"short-term, duration: 28 days, gavage, M/F, Sprague-Dawley, Deaths + Hematology: WBC increase + Blood Chemistry: Alpha 1-globirin, level decrease, K increasemg/kg/ , TG increase/ + Relative Organ …",100 mg/kg-day
CC(=O)N1CCN(c2ccc(OC[C@@H]3CO[C@@](Cn4ccnc4)(c4ccc(Cl)cc4Cl)O3)cc2)CC1 [Ketoconazole],NOEL,"short-term, duration: 28 days, gavage, M/F, Sprague-Dawley, Body Weight Changes: decrease + Blood Chemistry: ALT increase, Estrus cycle increase, T3 decrease, T4 decrease, TSH increase, Testosterone …",< 6.25 mg/kg-day
CC1=C(C)C(=O)C(C(CCCCCC(=O)O)c2ccccc2)=C(C)C1=O (racemic),NOAEL,"subchronic, duration: 13 weeks, gavage, M/F, Fischer 344, Body Weight Changes: decrease + Food Consumption: decrease + Hematology: RBC decrease, HCT decrease, HGB decrease, MCV increase, MCH …",20 mg/kg-day
CC1(C)Oc2ccc(C#N)cc2[C@@H](N2CCCC2=O)[C@@H]1O [Levcromakalim],NOAEL,"chronic, duration: 91 days, diet, M/F, CD, Body Weight Changes: increase.3 + Food Consumption: increase.3 + Water Consumption: increase + Urinalysis: Volume increase Osmolality …",0.03 mg/kg-day
c1ccc2c(c1)CCCC2 [Tetralin],NOAEL,"short-term, duration: 28 days, gavage, M/F, Wistar, Clinical Observation: Squatting position Closed eyes Reduced activity LethargyTonic convulsion Absence of auditory startle reflex + Body …",15 mg/kg-day
CC1(C)CC(N)CC(C)(CN)C1 (configuration not stated) [Isophorone diamine],NOAEL,"subchronic, duration: 90 days, drinking water, M/F, Wistar, Body Weight Changes: Weight gain decrease + Food Consumption: decrease + Water Consumption: decrease + Absolute Organ Weight: Kidney …",60 mg/kg-day
"C1CCC2=NCCCN2CC1 [1,8-Diazabicyclo[5.4.0]undec-7-ene]",NOAEL,[1],30 mg/kg-day
same,NOEL,[1],10 mg/kg-day
O=C(O)C1C(C(=O)O)C2(Cl)C(Cl)=C(Cl)C1(Cl)C2(Cl)Cl (configuration not stated) [Chlorendic acid],NOEL,"subchronic, duration: 13 weeks, diet, M/F, Fischer 344, Body Weight Changes: decrease + Histopathology: Liver-Cytomegaly Liver/bile duct -Hyperplasia Liver-Mitotic alteration",< 59.5 mg/kg-day
[Cu+2].[O-]n1ccccc1=S.[O-]n1ccccc1=S [Copper Omadine],NOEL,"short-term, duration: 28 days, gavage, M/F, Deaths + Clinical Observation: Ataxic gait Dragging of hindlimbs Emaciation + Body Weight Changes: decrease + Food Consumption: decrease + …",2.5 mg/kg-day
C=CCCCCCCCCCCCC [1-Tetradecene],NOAEL,"subchronic, gavage, M, Sprague-Dawley, Absolute Organ Weight: Liver increase + Relative Organ Weight: Liver increase + Histopathology: Liver-Hepatocyte cytoplasmic vacuolation",100 mg/kg-day
Nc1ccc(O)c(C(=O)O)c1 [5-Aminosalicylic acid],NOAEL,"chronic, duration: 91 days, gavage, F, Sprague-Dawley, Deaths + Urinalysis: Volume increase, Specific gravity decrease, Occult blood Na decrease, K decrease, Cl decrease + Hematology: RBC …",100 mg/kg-day
same,NOAEL,"chronic, duration: 91 days, gavage, M, Sprague-Dawley, Deaths + Urinalysis: Volume increase, Specific gravity decrease, Occult blood Na decrease, K decrease, Cl decrease + Hematology: RBC …",100 mg/kg-day
CC(C)(C)c1cc(O)ccc1O [tert-Butylhydroquinone],NOEL,"subchronic, duration: 13 weeks, diet, F, Fischer 344, Clinical Observation: Hair discoloration + Body Weight Changes: decrease + Food Consumption: decrease + Blood Chemistry: Bile acid increase…",200 mg/kg-day
same,NOEL,"subchronic, duration: 13 weeks, diet, M/F, Fischer 344, Clinical Observation: Hair discoloration + Body Weight Changes: decrease + Food Consumption: decrease + Blood Chemistry: Bile acid increase…",< 240 mg/kg-day
NCCCCCCCCCCC(=O)O [11-Aminoundecanoic acid],NOEL,"subchronic, duration: 13 weeks, diet, M/F, Fischer 344, Deaths + Histopathology: Kidney - mineralization Kidney - transitional-cell hyperplasia Kidney/renal pelvis - hyperplasia",< 864 mg/kg-day
COc1ccc(CCNCC(O)COc2cccc(C)c2)cc1OC.Cl (configuration not stated) [Bevantolol hydrochloride],NOEL,"chronic, duration: 91 days, gavage, M/F, CD, Deaths + Clinical Observation: Salivation Sedation Ptosis Prone position Lateral position Crouching position Convulsion Incontinence of …",60 mg/kg-day
Cc1cccc(C(C)(C)C)c1O [2-tert-Butyl-6-methylphenol],NOEL,"subchronic, gavage, M, Sprague-Dawley, Hematology: Ret increase, PT increase, APTT increase + Blood Chemistry: GOT increase, GPT increasegamma-GTP increase, Cho increase + …",8 mg/kg-day
"Cc1cc(Cl)ccc1Cl [Benzene, 1,4-dichloro-2-methyl-]",NOEL,"subchronic, gavage, M, Sprague-Dawley, Clinical Observation: White turbid urine Salivation + Absolute Organ Weight: Kidney increase + Relative Organ Weight: Kidney increase, R",30 mg/kg-day
CC(C)c1ccc(N)cc1 [Cumidine],NOEL,"subchronic, gavage, M, Sprague-Dawley, Clinical Observation: Anemia in eyes + Hematology: Met-Hgb increase, Hct decrease, Hgb decrease, RBC decrease, MCV increase, MCH increase, …",6 mg/kg-day
CCCCCCCCOC(=O)CCc1cc(-n2nc3ccccc3n2)c(O)c(C(C)(C)C)c1,NOEL,"short-term, duration: 28 days, gavage, M/F, Body Weight Changes: Body weight gain decrease + Hematology: PT increase + Blood Chemistry: GOT increase, GPT increase, T-CHO increase, TG …",2 mg/kg-day
Sc1ccc2ccccc2c1 [2-Naphthalenethiol],NOEL,"short-term, duration: 28 days, gavage, M/F, Sprague-Dawley, Functional Observational Battery: Landing foot splay decrease + Food Consumption: decrease + Water Consumption: increase + Urinalysis: …",8 mg/kg-day
"CCCCCCC[CH2][Sn]([Cl])([Cl])[Cl] [Stannane, trichlorooctyl-]",NOAEL,"subchronic, duration: 13 weeks, diet, M/F, Wistar, Blood Chemistry: ALP increase + Absolute Organ Weight: Thymus decrease + Relative Organ Weight: Thymus decrease + Histopathology: Thymus- …",9.6 mg/kg-day
same,NOAEL,"subchronic, duration: 13 weeks, diet, M/F, Wistar, Body Weight Changes: Mean body weight decrease + Food Consumption: decrease + Urinalysis: SG decrease + Hematology: HGB decrease, HCT …",< 2.88 mg/kg-day
"C=CC/C=C/C/C=C/C/C=C/C [1-Propene, tetramer]",NOAEL,[2],40 mg/kg-day
same,NOEL,[2],< 40 mg/kg-day
